In paper PMC11607896 (Biotechnology for Biofuels and Bioproducts, 2024):
One block for each molecule: values may come before it.

Assays:
Assay type in all cases: biochemical
PcCel7C [1] = target: T1, PcCel7C (Phanerodontia chrysosporium, UniProt P13860); assay: PASC hydrolysis, reducing sugar; conditions: PASC 10 g/L, 0.2 µM enzyme, pH 5.0, 50 °C, 60 min; may be deactivation
T1 sequence (P13860 19-516): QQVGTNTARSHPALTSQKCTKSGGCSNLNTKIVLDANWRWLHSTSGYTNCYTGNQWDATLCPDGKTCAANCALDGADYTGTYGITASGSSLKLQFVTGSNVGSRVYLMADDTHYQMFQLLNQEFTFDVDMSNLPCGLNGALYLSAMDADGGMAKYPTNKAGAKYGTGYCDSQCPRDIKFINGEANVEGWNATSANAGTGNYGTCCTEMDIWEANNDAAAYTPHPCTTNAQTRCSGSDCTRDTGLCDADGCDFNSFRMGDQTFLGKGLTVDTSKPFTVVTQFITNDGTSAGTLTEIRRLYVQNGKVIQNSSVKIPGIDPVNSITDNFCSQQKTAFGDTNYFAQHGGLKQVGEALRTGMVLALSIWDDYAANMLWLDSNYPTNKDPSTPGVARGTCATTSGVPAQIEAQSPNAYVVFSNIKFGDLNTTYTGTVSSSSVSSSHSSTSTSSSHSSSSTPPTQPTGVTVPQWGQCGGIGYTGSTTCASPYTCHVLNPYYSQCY

PcCel7D [2] = target: T2, PcCel7D (Phanerodontia chrysosporium, UniProt Q7LIJ0); assay: PASC hydrolysis, reducing sugar; conditions: PASC 10 g/L, 0.2 µM enzyme, pH 5.0, 50 °C, 60 min; may be deactivation
T2 sequence (Q7LIJ0 19-510): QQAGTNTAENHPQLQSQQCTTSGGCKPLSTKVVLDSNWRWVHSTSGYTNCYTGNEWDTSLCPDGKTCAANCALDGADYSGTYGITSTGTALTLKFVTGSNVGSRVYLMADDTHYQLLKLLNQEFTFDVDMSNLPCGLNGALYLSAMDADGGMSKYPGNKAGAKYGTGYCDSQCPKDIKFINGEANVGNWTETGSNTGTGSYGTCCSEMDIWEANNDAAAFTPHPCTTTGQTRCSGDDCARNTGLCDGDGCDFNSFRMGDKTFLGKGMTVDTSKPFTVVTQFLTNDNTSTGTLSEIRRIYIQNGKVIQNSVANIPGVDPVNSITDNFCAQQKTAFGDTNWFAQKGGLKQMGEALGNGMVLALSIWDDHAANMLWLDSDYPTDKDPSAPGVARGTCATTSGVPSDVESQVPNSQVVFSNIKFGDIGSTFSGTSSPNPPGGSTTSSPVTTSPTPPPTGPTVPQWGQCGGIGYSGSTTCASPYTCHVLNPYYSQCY

PcCel7D [3] = target: T2, PcCel7D; assay: PASC hydrolysis, reducing sugar; conditions: PASC 10 g/L, 0.2 µM enzyme, pH 5.0, 50 °C, 60 min; may be deactivation; remark: listed apart in the source
PcCel7C [4] = target: T1, PcCel7C; assay: PASC hydrolysis, reducing sugar; conditions: PASC 10 g/L, 0.2 µM enzyme, pH 5.0, 50 °C, 60 min; may be deactivation; remark: listed apart in the source
TrCel7A [5] = target: T3, TrCel7A (Trichoderma reesei, UniProt P62694); assay: inhibition of pNPC hydrolysis; conditions: 1 mM pNPC, 1.45 µM enzyme, pH 5.0, 50 °C, 20 min
T3 sequence (P62694 18-513): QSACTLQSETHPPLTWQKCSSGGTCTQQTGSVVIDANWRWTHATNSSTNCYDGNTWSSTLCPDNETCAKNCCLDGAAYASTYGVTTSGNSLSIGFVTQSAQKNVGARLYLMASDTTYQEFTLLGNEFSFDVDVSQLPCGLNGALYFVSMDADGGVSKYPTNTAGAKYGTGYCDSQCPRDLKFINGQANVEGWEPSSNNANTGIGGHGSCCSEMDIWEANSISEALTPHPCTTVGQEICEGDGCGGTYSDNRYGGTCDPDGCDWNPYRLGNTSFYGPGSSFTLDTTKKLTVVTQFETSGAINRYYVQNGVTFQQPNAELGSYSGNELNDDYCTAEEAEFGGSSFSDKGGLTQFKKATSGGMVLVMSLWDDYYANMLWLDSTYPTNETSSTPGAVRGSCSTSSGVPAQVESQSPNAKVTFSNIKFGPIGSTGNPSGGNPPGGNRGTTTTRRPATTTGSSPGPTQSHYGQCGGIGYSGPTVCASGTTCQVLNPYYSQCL

PcCel7C [6] = target: T1, PcCel7C; assay: inhibition of pNPC hydrolysis; conditions: 1 mM pNPC, 1.45 µM enzyme, pH 5.0, 50 °C, 20 min
PcCel7D [7] = target: T2, PcCel7D; assay: inhibition of pNPC hydrolysis; conditions: 1 mM pNPC, 1.45 µM enzyme, pH 5.0, 50 °C, 20 min
PcCel7C [8] = target: T1, PcCel7C; assay: inhibition of pNPC hydrolysis; conditions: 1 mM pNPC, 1.45 µM enzyme, pH 5.0, 50 °C, 20 min; product inhibition
TrCel7A [9] = target: T3, TrCel7A; assay: inhibition of pNPC hydrolysis; conditions: 1 mM pNPC, 1.45 µM enzyme, pH 5.0, 50 °C, 20 min; product inhibition
PcCel7D [10] = target: T2, PcCel7D; assay: inhibition of pNPC hydrolysis; conditions: 1 mM pNPC, 1.45 µM enzyme, pH 5.0, 50 °C, 20 min; product inhibition

Structure (SMILES): O=C(O)c1ccc(O)cc1 [compound 3, 4-hydroxybenzoic acid]
% decrease in activity at 30 mM (PcCel7C [1]): the activity of PcCBHs exhibited susceptibility to the same LRCs, following a comparable pattern
% decrease in activity at 30 mM (PcCel7D [2]): the activity of PcCBHs exhibited susceptibility to the same LRCs, following a comparable pattern

% reduction in activity at 30 mM (PcCel7D [3]): 67%
% reduction in activity at 30 mM (PcCel7C [4]): 87%
Structure (SMILES): O=C(O)c1c(O)cccc1O [compound 12, 2,6-dihydroxybenzoic acid]

% loss of activity at 1.5 M (TrCel7A [5]): 30%
% loss of activity at 1.5 M (PcCel7C [6]): 67%
% loss of activity at 1.5 M (PcCel7D [7]): 67%
Structure (SMILES): OC[C@H]1OC(O)[C@H](O)[C@@H](O)[C@@H]1O (stereo partly shown) [glucose]

% reduction in activity at 1 mM (PcCel7C [8]): ~ 50%
% reduction in activity at 1 mM (TrCel7A [9]): ~ 50%
% reduction in activity at 1 mM (PcCel7D [10]): ~ 50%
Structure (SMILES): OC[C@H]1O[C@@H](O[C@H]2[C@H](O)[C@@H](O)C(O)O[C@@H]2CO)[C@H](O)[C@@H](O)[C@@H]1O (stereo partly shown) [cellobiose]
